# Assays:
# [1] = cited from earlier work
# [2] = system: cytochrome c; assay: Enzymatic NAD(P)H oxidation / cytochrome c reduction catalyzed by N2N1; assay type: biochemical; details: inhibitor 2 μM
# Experimental: FIGS. 5A-5C provide graphs and schemes relating to the N2N1 mechanism of action. […] No specific substrate was added into reaction mix, therefore, it was concluded that reaction was driven by slow reduction of molecular oxygen dissolved into reaction buffer. The hypothetical reaction equation is shown below reaction plots. (B) The proposed molecular mechanism of possible substrate reduction catalyzed by N2N1. (C) Addition of peroxide or cytochrome c into reaction allowed us to identify cytochrome c as the most preferable substrate for the N2N1 driven enzymatic reaction. […] It was interesting to notice that addition of cytochrome c to non-enzymatic reaction reduced the reaction rate. […] The hypothetical reaction equation is show below the reaction plots.
# FIGS. 6A-6B provide graphs showing the enzymatic reduction of cytochrome C catalyzed by N2N1 can utilize both NADH and NADPH. (A) The enzymatic electrons transfer from NADH to cytochrome c driven by N2N1 was monitored by decrease in absorption at 340 nm (NADH) and increase in absorption at 550 nm (cytochrome c). The absorbance spectrum was screened at the end of the reaction (˜1 hour). The hypothetical reaction equation is shown below the reaction plots. (B) The enzymatic electrons transfer from NADPH to cytochrome c driven by N2N1 was monitored by decrease in absorption at 340 nm (NADPH) and increase in absorption at 550 nm (cytochrome c). The hypothetical reaction equation is shown below the reaction plots.
# To evaluate possible participation of mitochondrial NADH oxidoreductases, in particular Complex I and III, the […] was run in the presence of rotenone or antimycin A (2 μM). The acquired data allowed us to specify the most probable candidate that carry out the transfer electrons from NAD(P)H to cytochrome C driven by N2N1. The NQO1 protein would be the most likely candidate, while proteins from CYB5 family still cannot be ruled out.
# Bonkowski et al., Nature reviews. Molecular cell biology 17, 679-690 (2016); Orr et al., Antioxidants & redox signaling 19, 788-803 (2013). It quite possible, that NAD(P)H oxidation catalyzed by N2N1 is performed by NADH:cytochrome b5 reductases (CYB5 . . . ) or NAD(P)H:quinone oxidoreductase (NQO1) reductase (FIG. 3C). The inventors found by RNA-seq analysis that fourteen genes from CYB5 family were expressed in normal fibroblast. NQO1 was also detected at the high level of expression. These reductases connect aerobic metabolism with aging by directed electron flow from NAD(P)H to oxygen, cytochrome C, and peroxide. Jimenez-Hidalgo et al., Aging cell 8, 140-151 (2009). […]
Compound,water solubility [1],suppression of enzymatic reduction of cytochrome c catalyzed by N2N1 [2]
CO[C@H]1C[C@@H]2CC[C@@H](C)[C@@](O)(O2)C(=O)C(=O)N2CCCC[C@H]2C(=O)O[C@H]([C@H](C)C[C@@H]2CC[C@@H](O)[C@H](OC)C2)CC(=O)[C@H](C)/C=C(\C)[C@@H](O)[C@@H](OC)C(=O)[C@H](C)C[C@H](C)/C=C/C=C/C=C/1C [Rapamycin],poor,
"C=C(C)[C@H]1Cc2c(ccc3c2O[C@@H]2COc4cc(OC)c(OC)cc4[C@@H]2C3=O)O1 [rotenone, reference compound]",,did not suppress
antimycin A [reference compound],,did not suppress

# — patent publication US11723907B2, “Anti-aging compounds” (THE CLEVELAND CLINIC FOUNDATION, priority 2017, dated 2023)
